# How the values were obtained:
# [1] = system: umbilical cord blood-derived CD34+ cells; assay: In vitro colony-forming unit (CFU) assay; type: cell-based, human; details: FIG. 6, clones counted 14 days after seeding
# Method: In this example, the colony-forming unit (CFU) was used to detect the in vitro function of cord blood-derived hematopoietic stem cells induced by a small molecule inhibitor for qualitative and quantitative detection to verify their in vitro differentiation potential.
# First, 100 mL of medium MethoCult™ H4034 Optimum (Stem Cell, Cat. No.: 04034) were aliquoted, then thawing at 2-8° C. overnight; shaking vigorously for 1-2 minutes and letting it stand for 10 minutes until the bubbles rised to the liquid level. After tightly fitting the 50 mL syringe needle to the 5 mL disposable syringe, the medium is aspirated to 1 mL, pushing out the syringe completely to exhaust the gas in the syringe, and re-absorbing 3 mL into each 15 mL centrifuge tube (Corning, Cat. No. 430791); storing at 2-8° C. for 1 month, and at −20° C. for long-term storage.
# 3 mL of medium Meth® Cult′ H4034 Optimum was prepared and thawed overnight at room temperature (15-25° C.) or 2-8° C. […]
# Colonies were observed on the 7th and 14th days of culture, and colonies were counted with a STEMgrid™-6 counting grid (stem cell, Cat. number: 27000) after 14 days of culture. […]
# [2] = system: mobilized peripheral blood-derived CD34+ cells; assay: Cell counting: absolute number of marker-positive cells, comparison with UM171 and SR1; type: cell-based, human; details: FIG. 5B, 8 days
# Method: According to the solubility and required solvent indicated in the instructions of the small molecule inhibitor (see Table 1 for the Cat. number of the small molecule inhibitor), the preparation of the small molecule inhibitor stock solution was carried out. Next, the hematopoietic stem cell medium was prepared: SFEM II medium (stem cell, Cat. number: 09655)+50 ng/ml growth factor Flt-3L (PeProtech, Cat. number: 300-100UG)+50 ng/ml growth factor SCF (PeProtech, Cat. number): 300-07-100UG)+50 ng/ml growth factor TPO (PeProtech, Cat. number: 300-18-100UG)+10 ng/ml interleukin IL-6 (PeProtech, Cat. number: 200-06-20UG)+1% bispecific antibody (HyClone, Cat. No.: sv30010). According to the set concentration gradient of the small molecule inhibitor, the stock solution and the basal medium were used to prepare the medium containing different concentrations of the small molecule inhibitor.
# First, the prepared medium was added to a 24-well plate (Corning, Cat. number: 3473), 950 μl per well, and placing it in a carbon dioxide incubator (Thermo, model: 3111) to preheat; resuspending the spare umbilical cord Blood-derived HSCs of Example 1 with SFEM 11+50 ng/ml Flt-3L+50 ng/ml SCF+50 ng/ml TPO+10 ng/ml IL-6+1% bispecific antibody, calculating the medium volume to be added according to 50 μl cell suspension per well and 2*10^5/m1 cell density per well. For example, when the final volume of the cell culture solution per well was 1 ml, the total number of cells per well was 2*10^5 cells calculated according to the cell density per well, and the density of the […] of cell suspension supplemented to each well is 4*10^6/ml. The density of the spare HSCs of Example 1 was adjusted to the calculated density of the cell suspension, and adding it; taking out the preheated medium from the incubator, adding 50 μl of the cell suspension to each well, and after mixing, using the microscope (OLYMPUS, model: CKX53) to observe the cells state, and then putting it into an incubator for culturing.
# On the mobilized peripheral blood-derived CD34+ cells sorted in Example 1, the screened-out inhibitor AG1296 and literature-reported (Fares I, et al. Science. 2014; Boitano A E, et al. Science. 2010) inhibitors UM171 and SR1 were compared in the same way as Example 2. Eight days after the induction of the small molecule inhibitor, the expression of LT-HSCs cell surface markers (CD34+CD45+CD90+CD45RA−CD38−) was detected by flow cytometry using the same method as in Example 3. After 8 days of culture, 20 μL of cell suspension was taken into a cell counter (Nexcelom, model: Cellometer K2) and counted, and the absolute numbers of the final CD34+ cells and LT-HSCs on […] were calculated (absolute number of cells=total number of cells*stemness ratio).
structure (smiles),measurement,setting,value
COc1cc2ncc(-c3ccccc3)nc2cc1OC [AG1296],number of GEMM clones (CFU-GEMM),"[1]; 1 μM, 8 days treatment",significantly better than the other groups
same,total number of clones,"[1]; different concentrations of AG1296, 8 days treatment",little difference between the groups
same,"absolute number of CD34+CD90+, and CD34+CD90+CD45RA- cells",[2]; 1 μM,showed superiority
same,effect on cell proliferation,[2]; 1 μM,could inhibit cell proliferation
same,absolute number of CD34+ cells,"[2]; AG1296 at 1 μM, UM171 concentration not given",not significantly better than other groups
